According to ChEMBL document CHEMBL1201862, “PubChem BioAssay data set” (2004):
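How tested: cells in 96-well plates exposed to compound for 48 hours at five concentrations. Abbreviation: GI50, concentration required for 50% inhibition of growth.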 Activity calls are given as the source filed them. No stated cut-off is given here; in the data, active = GI50 up to about 1.1 µM and inactive = higher.

Experiments:
Assay in all cases: growth of human tumour cells (NCI), 48 h
SW-620 = test system: SW-620
SF-539 = test system: SF-539
M14 = test system: M14
HCC 2998 = test system: HCC 2998
SK-MEL-5 = test system: SK-MEL-5
SK-MEL-28 = test system: SK-MEL-28
KM12 = test system: KM12
OVCAR-8 = test system: OVCAR-8
SNB-19 = test system: SNB-19
NCI-H460 = test system: NCI-H460
CAKI-1 = test system: CAKI-1
HOP-62 = test system: HOP-62
SF-295 = test system: SF-295
SNB-75 = test system: SNB-75
786-0 = test system: 786-0
SF-268 = test system: SF-268
TK-10 = test system: TK-10

Row | SMILES | GI50 (SW-620) | GI50 (SF-539) | GI50 (M14) | GI50 (HCC 2998) | GI50 (SK-MEL-5) | GI50 (SK-MEL-28) | GI50 (KM12) | GI50 (OVCAR-8) | GI50 (SNB-19) | GI50 (NCI-H460) | GI50 (CAKI-1) | GI50 (HOP-62) | GI50 (SF-295) | GI50 (SNB-75) | GI50 (786-0) | GI50 (SF-268) | GI50 (TK-10)
1 | O=C(Cc1ccccc1)NN1C(=O)C(Cl)C1c1cccc([N+](=O)[O-])c1 (stereo unspecified) | 27.6 µM (inactive) | 80 µM (inactive) | 46.7 µM (inactive) | > 100 µM (inactive) | 39.9 µM (inactive) | > 92.9 µM (inactive) | > 90.4 µM (inactive) | 27.9 µM (inactive) | > 92.9 µM (inactive) | 35.2 µM (inactive) | 38.5 µM (inactive) | > 100 µM (inactive) | > 100 µM (inactive) | 0.729 µM (active) | 12.3 µM (inactive) | 44.7 µM (inactive) | > 100 µM (inactive)
2 | CCOC(=O)C(C)(c1c(C)[nH]c2ccccc12)c1c(C)[nH]c2ccccc12 | 16.9 µM (inactive) | 18.7 µM (inactive) | 14.4 µM (inactive) | 23.3 µM (inactive) | 15.7 µM (inactive) | 15.3 µM (inactive) | 14.2 µM (inactive) | 26.8 µM (inactive) | – | 17.6 µM (inactive) | 14.3 µM (inactive) | 18.9 µM (inactive) | 14 µM (inactive) | 17.6 µM (inactive) | 19.1 µM (inactive) | – | 18.7 µM (inactive)
3 | CC(O[Si](C)(C)C)C1C=CC(C)n2c(=O)n(-c3ccccc3)c(=O)n21 (stereo unspecified) | – | > 100 µM (inactive) | > 100 µM (inactive) | > 100 µM (inactive) | > 100 µM (inactive) | > 100 µM (inactive) | > 100 µM (inactive) | > 100 µM (inactive) | > 100 µM (inactive) | – | > 100 µM (inactive) | > 100 µM (inactive) | > 100 µM (inactive) | – | > 100 µM (inactive) | < 0.01 µM (active) | > 100 µM (inactive)
4 | CC(C)(C)C1=CC(=N/N=c2\scc(-c3ccccc3)n2-c2ccccc2)C=C(C(C)(C)C)C1=O | 86.5 µM (inactive) | > 100 µM (inactive) | > 100 µM (inactive) | > 100 µM (inactive) | > 100 µM (inactive) | > 100 µM (inactive) | > 100 µM (inactive) | > 100 µM (inactive) | > 100 µM (inactive) | > 100 µM (inactive) | > 100 µM (inactive) | > 100 µM (inactive) | > 100 µM (inactive) | > 100 µM (inactive) | > 100 µM (inactive) | > 100 µM (inactive) | > 100 µM (inactive)
5 | C=C1c2[nH]c3c([N+](=O)[O-])c(OC)ccc3c2CCN1C(C)=O | > 100 µM (inactive) | > 100 µM (inactive) | > 100 µM (inactive) | > 100 µM (inactive) | – | > 100 µM (inactive) | > 100 µM (inactive) | > 100 µM (inactive) | > 100 µM (inactive) | > 100 µM (inactive) | 21.6 µM (inactive) | > 100 µM (inactive) | > 100 µM (inactive) | 25 µM (inactive) | > 100 µM (inactive) | 28.7 µM (inactive) | > 100 µM (inactive)
6 | COC1(OC)C2(Cl)C(Cl)=C(Cl)C1(Cl)C1C2C2CC1(C(=O)O)c1ccccc12 (stereo unspecified) | 18.8 µM (inactive) | – | 17.9 µM (inactive) | 22.9 µM (inactive) | 15.9 µM (inactive) | 19.4 µM (inactive) | – | 27.4 µM (inactive) | 67.1 µM (inactive) | 20.7 µM (inactive) | 31.3 µM (inactive) | 23.4 µM (inactive) | 25.4 µM (inactive) | – | 16.4 µM (inactive) | 27.6 µM (inactive) | 29.1 µM (inactive)
7 | Cc1ccc(S(=O)(=O)N/N=C(/CC(=O)c2c(C)[n+]([O-])c3ccccc3[n+]2[O-])C(=O)Nc2ccccc2C)cc1 | > 100 µM (inactive) | > 100 µM (inactive) | > 100 µM (inactive) | > 100 µM (inactive) | – | > 100 µM (inactive) | > 100 µM (inactive) | – | > 100 µM (inactive) | > 100 µM (inactive) | > 100 µM (inactive) | > 100 µM (inactive) | > 100 µM (inactive) | 31.2 µM (inactive) | > 100 µM (inactive) | > 100 µM (inactive) | –
8 | N=C(N)NCCCC(Nc1c2ccccc2nc2ccccc12)C(=O)O (stereo unspecified) | > 100 µM (inactive) | > 100 µM (inactive) | > 100 µM (inactive) | > 100 µM (inactive) | – | > 100 µM (inactive) | > 100 µM (inactive) | > 100 µM (inactive) | – | > 100 µM (inactive) | > 100 µM (inactive) | – | > 100 µM (inactive) | > 100 µM (inactive) | > 100 µM (inactive) | > 100 µM (inactive) | 53.7 µM (inactive)
9 | COc1ccc2c(c1OC)C1=C(C2=O)c2cc3c(cc2CCN1)OCO3 | 22.5 µM (inactive) | 28.2 µM (inactive) | 37.3 µM (inactive) | 32.1 µM (inactive) | 33.1 µM (inactive) | 42.7 µM (inactive) | 20.4 µM (inactive) | 39.9 µM (inactive) | – | 32.4 µM (inactive) | 27.3 µM (inactive) | 48.6 µM (inactive) | 33.5 µM (inactive) | 2.74 µM (inactive) | 31.9 µM (inactive) | 41.9 µM (inactive) | 54.1 µM (inactive)
10 | Cc1cccc2c1NC(c1c(C)[nH]c3ccccc13)C2 (stereo unspecified) | 68.2 µM (inactive) | > 100 µM (inactive) | 78.7 µM (inactive) | > 100 µM (inactive) | > 100 µM (inactive) | > 100 µM (inactive) | 62.4 µM (inactive) | > 100 µM (inactive) | > 100 µM (inactive) | > 100 µM (inactive) | – | > 100 µM (inactive) | 54.8 µM (inactive) | > 100 µM (inactive) | > 100 µM (inactive) | > 100 µM (inactive) | > 100 µM (inactive)
11 | COc1ccc(C2=NN(C(=O)COc3ccc(Cl)cc3)C(O)(c3ccc(Cl)cc3)C2)cc1 (stereo unspecified) | > 100 µM (inactive) | > 100 µM (inactive) | > 100 µM (inactive) | > 100 µM (inactive) | – | > 100 µM (inactive) | > 100 µM (inactive) | > 100 µM (inactive) | > 100 µM (inactive) | > 100 µM (inactive) | > 100 µM (inactive) | > 100 µM (inactive) | > 100 µM (inactive) | > 100 µM (inactive) | > 100 µM (inactive) | > 100 µM (inactive) | > 100 µM (inactive)
12 | CCOc1cc[n+]([C-](C#N)C#N)cc1 | > 100 µM (inactive) | > 100 µM (inactive) | > 100 µM (inactive) | > 100 µM (inactive) | > 100 µM (inactive) | – | > 100 µM (inactive) | > 100 µM (inactive) | > 100 µM (inactive) | > 100 µM (inactive) | > 100 µM (inactive) | > 100 µM (inactive) | > 100 µM (inactive) | > 100 µM (inactive) | > 100 µM (inactive) | > 100 µM (inactive) | > 100 µM (inactive)
13 | COC12OCCN(C)C1=CC(=O)C1(C)N=NCC12 (stereo unspecified) | > 100 µM (inactive) | > 100 µM (inactive) | > 100 µM (inactive) | > 100 µM (inactive) | > 100 µM (inactive) | > 100 µM (inactive) | > 100 µM (inactive) | > 100 µM (inactive) | – | > 100 µM (inactive) | > 100 µM (inactive) | – | > 100 µM (inactive) | > 100 µM (inactive) | > 100 µM (inactive) | – | > 100 µM (inactive)
14 | COC1C=CC23c4cc5c(cc4C(O)OC2CN(C)C3C1)OCO5 (stereo unspecified) | 1.59 µM (inactive) | 1.08 µM (active) | 0.746 µM (active) | 2.29 µM (inactive) | 0.434 µM (active) | – | 2.13 µM (inactive) | 2.16 µM (inactive) | 1.65 µM (inactive) | 2.69 µM (inactive) | 2.98 µM (inactive) | 2.54 µM (inactive) | 1.69 µM (inactive) | – | 1.64 µM (inactive) | 3.37 µM (inactive) | –
15 | COc1cc(Nc2nc3ccc(C(F)(F)F)cc3nc2-c2ccccc2)cc(OC)c1OC | 85.3 µM (inactive) | 25.2 µM (inactive) | 9.93 µM (inactive) | 4.23 µM (inactive) | 16.4 µM (inactive) | 40.8 µM (inactive) | 9.38 µM (inactive) | 28.2 µM (inactive) | – | 4.82 µM (inactive) | 18.8 µM (inactive) | > 100 µM (inactive) | 3.05 µM (inactive) | > 100 µM (inactive) | 31 µM (inactive) | 5.75 µM (inactive) | > 100 µM (inactive)
16 | CC(C)(C)C(=O)CC(=O)C(C)(C)C.CC(C)(C)C(=O)CC(=O)C(C)(C)C.[SiH4] | 0.847 µM (active) | 2.56 µM (inactive) | 2.18 µM (inactive) | 0.393 µM (active) | 2.1 µM (inactive) | 3.15 µM (inactive) | 0.767 µM (active) | 2.92 µM (inactive) | 1.96 µM (inactive) | – | 0.579 µM (active) | 2.33 µM (inactive) | 1.01 µM (active) | 0.719 µM (active) | 2.69 µM (inactive) | 1.76 µM (inactive) | 3.4 µM (inactive)
17 | O=C(NNc1ccccc1)/C(=C/c1ccc2c(c1)OCO2)NC(=O)c1ccccc1 | – | > 100 µM (inactive) | > 100 µM (inactive) | > 100 µM (inactive) | > 100 µM (inactive) | > 100 µM (inactive) | > 100 µM (inactive) | > 100 µM (inactive) | > 100 µM (inactive) | > 100 µM (inactive) | > 100 µM (inactive) | > 100 µM (inactive) | > 100 µM (inactive) | > 100 µM (inactive) | > 100 µM (inactive) | > 100 µM (inactive) | > 100 µM (inactive)
